Consider one compound from publication PMC6060375 (Drug Delivery, 2018).

Data set [1] is described as follows: Tissue distribution of TA in tumor-bearing nude mice (GC-MS/MS). The data set is classed as in vivo. Conditions: BALB/c nude, mouse, spleen, intravenous; TA measured after treatment of nude mice with mPEG2K-SA-TA; dose group not stated; read-out: tissue exposure to TA in spleen. As for the experimental part: In order to better support the anti-tumor evaluation and following histological assay, the harvested tissues were prepared as abovementioned method to monitor the amount of TA by GC–MS/MS in these tissues, including heart, liver, spleen, lung, kidney and tumor.

Data set [2] in a line: Pharmacokinetics of TA in rats after i.v. administration. Conditions: both sexes, Sprague-Dawley, rat, plasma, iv, total TA, 3 mg/kg TA equivalent. The data set is classed as in vivo, Sprague–Dawley (SD) rats. The procedure:
Sprague–Dawley (SD) rats (male and female, 300 ± 30 g) were purchased from SIPPR/BK Experimental Animal Co., Ltd (Shanghai, China). All animals were kept in a humanized environment, with the temperature maintained at 20 ± 2 °C and relative humidity at 50 ± 10%. All the animal procedures were performed following the approved protocol. SD rats were randomly divided into different groups (n = 4 in each group). Rats from different groups were intravenously (i.v.) administrated with TA solution, PEGylated TA solution mPEG2K-SA-TA, respectively. At the designated time points, the blood samples were collected into polyethylene tubes containing EDTA at 0, 0.083, 0.167, 0.5, 0.75, 1, 2, 4, 8, 12, 24, 36 and 48 h and then centrifuged at 12,000 rpm for 5 min to obtain plasma. The plasma samples were stored at −80 °C till analysis. The harvested plasma samples were prepared by sample direct saponification or extraction and analyzed by GC–MS/MS (Wang et al., [2015]). […]
The pharmacokinetic parameters were calculated by a noncompartmental analysis using WinNonlin (Version 6.4; Pharsight, Mountain View, CA, USA). […] The systemic exposure to TA (area under the plasma concentration versus time profile from the dosing time to the terminal sampling time, AUC0−t) was calculated by trapezoidal rule. […]

With `CCCCCCCCCCCCCCCCCCCCCCCCCCCCCCO` [TA, Triacontanol], in data set [1], the concentration at 21 days turned out to be 4170 ng/g. Moreover, the half-life in data set [2] (read-out: elimination half-life (t1/2) (converted)) is 2.57 h. For the same compound, in data set [2] (read-out: mean residence time), the MRT was found to be 2.95 h.
